Test results taken from US20040006070A1, “Intraspinal continuous infusion of midazolam hydrochloride for the treatment of pain” (priority 2002, published 2004).
Counter-ions that a name gives are not always drawn.

Test: Bloodwork: complete blood count, electrolytes, extended blood chemistry
Type: in vivo, sheep
Conditions: for Total Bili: ref 0.14-0.32; for Creatinine: ref 1-2.7; for Albumin: ref 2.4-3; for K+: ref 3.9-5.4; for Phos: ref 5-7.3; for Total Prot: ref 6-7.9
Protocol: Indirect blood pressure, pulse recording, pain testing (mechanical stimulus device, cold and warm water baths see description in procedure) and weight were taken on days 1, 3, 7, 15, 22, 29, 36, and 43. Venous blood samples (15 ml drawn from the jugular vein with Vacutainer brand blood collection tubes) for complete blood count, electrolytes, and extended blood chemistry were drawn on days 1, 15, and 43 (mild procedure only light hand restraint necessary).

With `Cc1ncc2n1-c1ccc(Cl)cc1C(c1ccccc1F)=NC2` [Midazolam, midazolam hydrochloride] the AST (sheep #473, 3 mg/day, Day 1) was 239 U/L, the “Alk Phos” value (sheep #473, 3 mg/day, Day 1) was 41 U/L and the BUN (sheep #473, 3 mg/day, Day 1) was 10 mg/dL. For the same molecule, the CPK (sheep #473, 3 mg/day, Day 1) was 392 U/L, the Cholesterol (sheep #473, 3 mg/day, Day 1) was 72 mg/dL and the “Differential Count: Eosin” value (sheep #473, 3 mg/day, Day 1) was 1%. For the same molecule, the “Differential Count: Lymph” value (sheep #473, 3 mg/day, Day 1) was 39%, the “Differential Count: Mono” value (sheep #473, 3 mg/day, Day 1) was 1% and the “Differential Count: Seg” value (sheep #473, 3 mg/day, Day 1) was 59%. The “Gamma GT” value (sheep #473, 3 mg/day, Day 1) was 69 U/L, the Glucose (sheep #473, 3 mg/day, Day 1) was 91 mg/dL and the Hct (sheep #473, 3 mg/day, Day 1) was 33.0%. For the same molecule, the Hgb (sheep #473, 3 mg/day, Day 1) was 11.3 g/dL, the MCH (sheep #473, 3 mg/day, Day 1) was 9.7 pg and the MCHC (sheep #473, 3 mg/day, Day 1) was 32.2 G/dl. For the same molecule, the MCV (sheep #473, 3 mg/day, Day 1) was 30.0 fL, the “Na+” value (sheep #473, 3 mg/day, Day 1) was 153 mEq/l and the “Platlet Count” value (sheep #473, 3 mg/day, Day 1) was 666000 µL⁻¹. The RBC (sheep #473, 3 mg/day, Day 1) was 1.1e+07 µL⁻¹, the WBC (sheep #473, 3 mg/day, Day 1) was 5800 µL⁻¹ and the “Total Bili” value (sheep #473, 3 mg/day, Day 1) was 0.2 mg/dL. For the same molecule, the Creatinine (sheep #473, 3 mg/day, Day 1) was 1.0 mg/dL, the Albumin (sheep #473, 3 mg/day, Day 1) was 3.4 g/dL and the “K+” value (sheep #473, 3 mg/day, Day 1) was 4.4 mEq/l. For the same molecule, the Phos (sheep #473, 3 mg/day, Day 1) was 6.9 mg/dL, the “Total Prot” value (sheep #473, 3 mg/day, Day 1) was 6.5 g/dL and the ALT (sheep #473, 3 mg/day, Day 15) was 1 U/L. The AST (sheep #473, 3 mg/day, Day 15) was 85 U/L, the “Alk Phos” value (sheep #473, 3 mg/day, Day 15) was 59 U/L and the BUN (sheep #473, 3 mg/day, Day 15) was 10 mg/dL. For the same molecule, the CPK (sheep #473, 3 mg/day, Day 15) was 98 U/L, the Cholesterol (sheep #473, 3 mg/day, Day 15) was 79 mg/dL and the “Differential Count: Eosin” value (sheep #473, 3 mg/day, Day 15) was 6%. The “Differential Count: Lymph” value (sheep #473, 3 mg/day, Day 15) was 53%, the “Differential Count: Mono” value (sheep #473, 3 mg/day, Day 15) was 1% and the “Differential Count: Seg” value (sheep #473, 3 mg/day, Day 15) was 40%. For the same molecule, the “Gamma GT” value (sheep #473, 3 mg/day, Day 15) was 59 U/L, the Glucose (sheep #473, 3 mg/day, Day 15) was 74 mg/dL and the Hct (sheep #473, 3 mg/day, Day 15) was 41.0%. It also gave a Hgb (sheep #473, 3 mg/day, Day 15) of 12.9 g/dL, an MCH (sheep #473, 3 mg/day, Day 15) of 9.3 pg and an MCHC (sheep #473, 3 mg/day, Day 15) of 31.5 G/dl. For the same molecule, the MCV (sheep #473, 3 mg/day, Day 15) was 29.6 fL, the “Na+” value (sheep #473, 3 mg/day, Day 15) was 152 mEq/l and the “Platlet Count” value (sheep #473, 3 mg/day, Day 15) was 336000 µL⁻¹. The RBC (sheep #473, 3 mg/day, Day 15) was 1.25e+07 µL⁻¹, the WBC (sheep #473, 3 mg/day, Day 15) was 5100 µL⁻¹ and the “Total Bili” value (sheep #473, 3 mg/day, Day 15) was 0.1 mg/dL. The Creatinine (sheep #473, 3 mg/day, Day 15) was 1.2 mg/dL, the Albumin (sheep #473, 3 mg/day, Day 15) was 3.7 g/dL and the “K+” value (sheep #473, 3 mg/day, Day 15) was 4.6 mEq/l. The Phos (sheep #473, 3 mg/day, Day 15) was 5.8 mg/dL, the “Total Prot” value (sheep #473, 3 mg/day, Day 15) was 6.7 g/dL and the ALT (sheep #473, 3 mg/day, Day 43) was 8 U/L. The AST (sheep #473, 3 mg/day, Day 43) was 61 U/L, the “Alk Phos” value (sheep #473, 3 mg/day, Day 43) was 73 U/L and the BUN (sheep #473, 3 mg/day, Day 43) was 15 mg/dL. For the same molecule, the CPK (sheep #473, 3 mg/day, Day 43) was 82 U/L, the Cholesterol (sheep #473, 3 mg/day, Day 43) was 78 mg/dL and the “Differential Count: Eosin” value (sheep #473, 3 mg/day, Day 43) was 2%. The “Differential Count: Lymph” value (sheep #473, 3 mg/day, Day 43) was 60%, the “Differential Count: Mono” value (sheep #473, 3 mg/day, Day 43) was 2% and the “Differential Count: Seg” value (sheep #473, 3 mg/day, Day 43) was 36%. For the same molecule, the “Gamma GT” value (sheep #473, 3 mg/day, Day 43) was 58 U/L, the Glucose (sheep #473, 3 mg/day, Day 43) was 59 mg/dL and the Hct (sheep #473, 3 mg/day, Day 43) was 41.5%. It also gave a Hgb (sheep #473, 3 mg/day, Day 43) of 12.9 g/dL, an MCH (sheep #473, 3 mg/day, Day 43) of 9.4 pg and an MCHC (sheep #473, 3 mg/day, Day 43) of 31.1 G/dl. For the same molecule, the MCV (sheep #473, 3 mg/day, Day 43) was 30.2 fL, the “Na+” value (sheep #473, 3 mg/day, Day 43) was 150 mEq/l and the “Platlet Count” value (sheep #473, 3 mg/day, Day 43) was 263000 µL⁻¹. For the same molecule, the RBC (sheep #473, 3 mg/day, Day 43) was 1.373e+07 µL⁻¹, the WBC (sheep #473, 3 mg/day, Day 43) was 3400 µL⁻¹ and the “Total Bili” value (sheep #473, 3 mg/day, Day 43) was 0.0 mg/dL. For the same molecule, the Creatinine (sheep #473, 3 mg/day, Day 43) was 1.5 mg/dL, the Albumin (sheep #473, 3 mg/day, Day 43) was 3.4 g/dL and the “K+” value (sheep #473, 3 mg/day, Day 43) was 5.6 mEq/l. For the same molecule, the Phos (sheep #473, 3 mg/day, Day 43) was 5.3 mg/dL, the “Total Prot” value (sheep #473, 3 mg/day, Day 43) was 6.4 g/dL and the ALT (sheep #498, 10 mg/day, Day 1) was 8.0 U/L. For the same molecule, the AST (sheep #498, 10 mg/day, Day 1) was 95 U/L, the “Alk Phos” value (sheep #498, 10 mg/day, Day 1) was 45 U/L and the BUN (sheep #498, 10 mg/day, Day 1) was 9.0 Mg/dl. For the same molecule, the CPK (sheep #498, 10 mg/day, Day 1) was 89 U/L, the Cholesterol (sheep #498, 10 mg/day, Day 1) was 63 Mg/dl and the “Differential Count: Atyp lym” value (sheep #498, 10 mg/day, Day 1) was 2%. The “Differential Count: Baso” value (sheep #498, 10 mg/day, Day 1) was 1%, the “Differential Count: Lymph” value (sheep #498, 10 mg/day, Day 1) was 28% and the “Differential Count: Mono” value (sheep #498, 10 mg/day, Day 1) was 1%. The “Differential Count: Seg” value (sheep #498, 10 mg/day, Day 1) was 68%, the “Gamma GT” value (sheep #498, 10 mg/day, Day 1) was 74 U/L and the Glucose (sheep #498, 10 mg/day, Day 1) was 131 mg/dL. The Hct (sheep #498, 10 mg/day, Day 1) was 31.0%, the Hgb (sheep #498, 10 mg/day, Day 1) was 11.1 g/dL and the MCH (sheep #498, 10 mg/day, Day 1) was 9.6 pg. The MCHC (sheep #498, 10 mg/day, Day 1) was 32.0 g/dL, the MCV (sheep #498, 10 mg/day, Day 1) was 30.1 fL and the “Na+” value (sheep #498, 10 mg/day, Day 1) was 151 mEq/l. For the same molecule, the “Platlet Count” value (sheep #498, 10 mg/day, Day 1) was 592000 µL⁻¹, the RBC (sheep #498, 10 mg/day, Day 1) was 1.153e+07 µL⁻¹ and the WBC (sheep #498, 10 mg/day, Day 1) was 6000 µL⁻¹. For the same molecule, the “Total Bili” value (sheep #498, 10 mg/day, Day 1) was 0.2 mg/dL, the Creatinine (sheep #498, 10 mg/day, Day 1) was 1.6 mg/dL and the Albumin (sheep #498, 10 mg/day, Day 1) was 3.9 g/dL. For the same molecule, the “K+” value (sheep #498, 10 mg/day, Day 1) was 4.4 mEq/l, the Phos (sheep #498, 10 mg/day, Day 1) was 3.8 Mg/dl and the “Total Prot” value (sheep #498, 10 mg/day, Day 1) was 6.4 g/dL. For the same molecule, the ALT (sheep #498, 10 mg/day, Day 15) was 7.0 U/L, the AST (sheep #498, 10 mg/day, Day 15) was 86 U/L and the “Alk Phos” value (sheep #498, 10 mg/day, Day 15) was 87 U/L. For the same molecule, the BUN (sheep #498, 10 mg/day, Day 15) was 16 Mg/dl, the CPK (sheep #498, 10 mg/day, Day 15) was 154 U/L and the Cholesterol (sheep #498, 10 mg/day, Day 15) was 63 Mg/dl. For the same molecule, the “Differential Count: Bands” value (sheep #498, 10 mg/day, Day 15) was 8%, the “Differential Count: Lymph” value (sheep #498, 10 mg/day, Day 15) was 66% and the “Differential Count: Mono” value (sheep #498, 10 mg/day, Day 15) was 3%. The “Differential Count: Seg” value (sheep #498, 10 mg/day, Day 15) was 23%, the “Gamma GT” value (sheep #498, 10 mg/day, Day 15) was 90 U/L and the Glucose (sheep #498, 10 mg/day, Day 15) was 78 mg/dL. For the same molecule, the Hct (sheep #498, 10 mg/day, Day 15) was 44.8%, the Hgb (sheep #498, 10 mg/day, Day 15) was 13.3 g/dL and the MCH (sheep #498, 10 mg/day, Day 15) was 9.2 pg. For the same molecule, the MCHC (sheep #498, 10 mg/day, Day 15) was 29.7 g/dL, the MCV (sheep #498, 10 mg/day, Day 15) was 31.1 fL and the “Na+” value (sheep #498, 10 mg/day, Day 15) was 151 mEq/l. For the same molecule, the “Platlet Count” value (sheep #498, 10 mg/day, Day 15) was 42000 µL⁻¹, the RBC (sheep #498, 10 mg/day, Day 15) was 1.439e+07 µL⁻¹ and the WBC (sheep #498, 10 mg/day, Day 15) was 8600 µL⁻¹. The “Total Bili” value (sheep #498, 10 mg/day, Day 15) was 0.1 mg/dL, the Creatinine (sheep #498, 10 mg/day, Day 15) was 1.8 mg/dL and the Albumin (sheep #498, 10 mg/day, Day 15) was 3.4 g/dL. For the same molecule, the “K+” value (sheep #498, 10 mg/day, Day 15) was 5.1 mEq/l, the Phos (sheep #498, 10 mg/day, Day 15) was 6.4 Mg/dl and the “Total Prot” value (sheep #498, 10 mg/day, Day 15) was 6.7 g/dL. The ALT (sheep #498, 10 mg/day, Day 43) was 8.0 U/L, the AST (sheep #498, 10 mg/day, Day 43) was 89 U/L and the “Alk Phos” value (sheep #498, 10 mg/day, Day 43) was 87 U/L. The BUN (sheep #498, 10 mg/day, Day 43) was 13 Mg/dl, the CPK (sheep #498, 10 mg/day, Day 43) was 203 U/L and the Cholesterol (sheep #498, 10 mg/day, Day 43) was 67 Mg/dl. For the same molecule, the “Differential Count: Eosin” value (sheep #498, 10 mg/day, Day 43) was 3%, the “Differential Count: Lymph” value (sheep #498, 10 mg/day, Day 43) was 63% and the “Differential Count: Mono” value (sheep #498, 10 mg/day, Day 43) was 1%. The “Differential Count: Seg” value (sheep #498, 10 mg/day, Day 43) was 33%, the “Gamma GT” value (sheep #498, 10 mg/day, Day 43) was 65 U/L and the Glucose (sheep #498, 10 mg/day, Day 43) was 77 mg/dL. For the same molecule, the Hct (sheep #498, 10 mg/day, Day 43) was 34.7% and the Hgb (sheep #498, 10 mg/day, Day 43) was 10.5 g/dL.
